Measured values reported in patent US8178658B2 (Dow AgroSciences, LLC, priority 2008, dated 2012).

Experiments:
[1] = tested on: beet armyworm (BAW; Spodoptera exigua: Lepidoptera); assay: 96-well microtiter plate-based high throughput (HTS) diet bioassay on beet armyworm (BAW HTS); type: in vivo; conditions: for BAW HTS: BAW eggs, 12 μg test compound per well, mortality at 6 d post-treatment, mortality class; for pest or weed control at 12 µg/well, 12 µg/well: Spodoptera exigua, 144 h, read-out: BAW HTS
Outline: (§1)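 Spodoptera exigua eggs on artificial diet in 96-well plates, surface-treated with 12 μg compound in DMSO-acetone-water; dark, 29° C, mortality at 6 d, six replicates. 128-well trays: second-instar larvae on diet treated at 50 μg/cm^2, 25° C, 14:10 light-dark, six days, mortality averaged over eight wells.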

[2] = tested on: beet armyworm (BAW; Spodoptera exigua: Lepidoptera); assay: 128-well diet tray assay on beet armyworm (BAW 50); type: in vivo; conditions: for BAW 50 ug/cm2: 128-well diet tray assay, 50 μg/cm^2 of test compound on diet, second instar BAW larvae, mortality class; for pest or weed control at 50 µg/cm2, 50 µg/cm2: Spodoptera exigua, 144 h, read-out: BAW 50 ug/cm2
Outline: as §1

[3] = 96-well microtiter plate HTS diet assay

SMILES | BAW HTS ([1]; 96-well HTS diet assay) | BAW HTS [1, 3] | BAW 50 ug/cm2 [2] | pest or weed control at 12 µg/well, 12 µg/well [1] [%] | pest or weed control at 50 µg/cm2, 50 µg/cm2 [2] [%]
CO[C@@H]1[C@@H](OC)[C@H](C)O[C@@H](OC(=O)Nc2ccc(-c3nc(C)n(-c4ccc(OC(F)(F)F)cc4)n3)cc2)[C@@H]1OC [Compound 194] | A (the compound was tested and at least 50 percent mortality was observed) | A (the compound was tested and at least 50 percent mortality was observed) | A (the compound was tested and at least 50 percent mortality was observed) |  | 
CO[C@@H]1[C@@H](OC)[C@H](C)O[C@H](OC(=O)Nc2ccc(-c3nc(C)n(-c4ccc(OC(F)(F)F)cc4)n3)cc2)[C@@H]1OC [Compound 195] | B (either (1) the compound was tested and less than 50 percent mortality was observed or (2) the compound was not tested) | B (either (1) the compound was tested and less than 50 percent mortality was observed or (2) the compound was not tested) | A (the compound was tested and at least 50 percent mortality was observed) |  | 
CO[C@@H]1[C@@H](OC)[C@H](C)O[C@@H](OC(=O)Nc2ccc(-c3ncn(-c4ccc(Oc5ccc(Cl)cc5)cc4)n3)cc2)[C@@H]1OC [Compound 196] | A (the compound was tested and at least 50 percent mortality was observed) | A (the compound was tested and at least 50 percent mortality was observed) | A (the compound was tested and at least 50 percent mortality was observed) |  | 
CCCCO[C@@H]1[C@@H](OC)[C@H](C)O[C@@H](OC(=O)Nc2ccc(-n3cnc(-c4ccc(C)cc4)n3)cc2)[C@@H]1OC [Compound 197] | A (the compound was tested and at least 50 percent mortality was observed) | A (the compound was tested and at least 50 percent mortality was observed) | A (the compound was tested and at least 50 percent mortality was observed) |  | 
CCCCO[C@@H]1[C@@H](OC)[C@H](C)O[C@@H](OC(=O)Nc2ccc(-n3cnc(-c4ccc(C(F)(F)F)cc4)n3)cc2)[C@@H]1OC [Compound 198] | A (the compound was tested and at least 50 percent mortality was observed) | A (the compound was tested and at least 50 percent mortality was observed) | A (the compound was tested and at least 50 percent mortality was observed) |  | 
CCCCO[C@@H]1[C@@H](OC)[C@H](C)O[C@H](OC(=O)Nc2ccc(-n3cnc(-c4ccc(C(F)(F)F)cc4)n3)cc2)[C@@H]1OC [Compound 199] | A (the compound was tested and at least 50 percent mortality was observed) | A (the compound was tested and at least 50 percent mortality was observed) | A (the compound was tested and at least 50 percent mortality was observed) |  | 
CO[C@@H]1[C@@H](OC)[C@H](C)O[C@@H](OC(=O)Nc2ccc(-c3ncn(-c4ccc(OC(F)(F)C(F)(F)F)cc4)n3)cc2)[C@@H]1OC [Compound 200] | A (the compound was tested and at least 50 percent mortality was observed) | A (the compound was tested and at least 50 percent mortality was observed) | A (the compound was tested and at least 50 percent mortality was observed) |  | 
CCO[C@@H]1[C@@H](OC)[C@H](C)O[C@@H](OC(=O)Nc2ccc(-c3ncn(-c4ccc(OC(F)(F)C(F)(F)F)cc4)n3)cc2)[C@@H]1OC [Compound 201, {4-[1-(4-pentafluoroethyloxyphenyl)-1H-[1,2,4]triazol-3-yl]-phenyl}-carbamic acid (2S,3R,4R,5S,6S)-4-ethoxy-3,5-dimethoxy-6-methyl-tetrahydropyran-2-yl ester] |  | A (the compound was tested and at least 50 percent mortality was observed) | A (the compound was tested and at least 50 percent mortality was observed) | > 50 | > 50
CCO[C@@H]1[C@@H](OC)[C@H](C)O[C@H](OC(=O)Nc2ccc(-c3ncn(-c4ccc(OC(F)(F)C(F)(F)F)cc4)n3)cc2)[C@@H]1OC [Compound 202, {4-[1-(4-pentafluoroethyloxyphenyl)-1H-[1,2,4]triazol-3-yl]-phenyl}-carbamic acid (2R,3R,4R,5S,6S)-4-ethoxy-3,5-dimethoxy-6-methyl-tetrahydropyran-2-yl ester] |  | A (the compound was tested and at least 50 percent mortality was observed) | A (the compound was tested and at least 50 percent mortality was observed) | > 50 | > 50
CCO[C@@H]1[C@@H](OC)[C@H](C)O[C@@H](OC(=S)Nc2ccc(-c3ncn(-c4ccc(OC(F)(F)C(F)(F)F)cc4)n3)cc2)[C@@H]1OC [Compound 203, {4-[1-(4-pentafluoroethyloxy-phenyl)-1H-[1,2,4]triazol-3-yl]-phenyl}-thiocarbamic acid (2S,3R,4R,5S,6S)-4-ethoxy-3,5-dimethoxy-6-methyl-tetrahydropyran-2-yl ester] |  | A (the compound was tested and at least 50 percent mortality was observed) | A (the compound was tested and at least 50 percent mortality was observed) | > 50 | > 50
C=CCO[C@@H]1[C@@H](OC)[C@H](C)O[C@@H](OC(=O)Nc2ccc(-c3ncn(-c4ccc(OC(F)(F)C(F)(F)F)cc4)n3)cc2)[C@@H]1OC [Compound 204] | A (the compound was tested and at least 50 percent mortality was observed) | A (the compound was tested and at least 50 percent mortality was observed) | A (the compound was tested and at least 50 percent mortality was observed) |  | 
C=CCO[C@@H]1[C@@H](OC)[C@H](C)O[C@@H](OC(=O)Nc2ccc(-c3ncn(-c4ccc(OC(F)(F)F)cc4)n3)cc2)[C@@H]1OC [Compound 205] | A (the compound was tested and at least 50 percent mortality was observed) | A (the compound was tested and at least 50 percent mortality was observed) | A (the compound was tested and at least 50 percent mortality was observed) |  | 
CCO[C@@H]1[C@@H](OCC)[C@H](C)O[C@@H](OC(=O)Nc2ccc(-c3ncn(-c4ccc(OC(F)(F)C(F)(F)F)cc4)n3)cc2)[C@@H]1OCC [Compound 206] | A (the compound was tested and at least 50 percent mortality was observed) | A (the compound was tested and at least 50 percent mortality was observed) | A (the compound was tested and at least 50 percent mortality was observed) |  | 
CCCO[C@@H]1[C@@H](OC)[C@H](C)O[C@@H](OC(=O)Nc2ccc(-c3ncn(-c4ccc(OC(F)(F)C(F)(F)F)cc4)n3)cc2)[C@@H]1OC [Compound 207, {4-[1-(4-pentafluoroethyloxyphenyl)-1H-[1,2,4]triazol-3-yl]-phenyl}-carbamic acid (2S,3R,4R,5S,6S)-4-propoxy-3,5-dimethoxy-6-methyl-tetrahydropyran-2-yl ester] |  | B (either (1) the compound was tested and less than 50 percent mortality was observed or (2) the compound was not tested) | A (the compound was tested and at least 50 percent mortality was observed) | < 50 | > 50
